{"source": "paper PMC6934184", "about": "“Selective DNA-PKcs inhibition extends the therapeutic index of localized radiotherapy and chemotherapy” (The Journal of Clinical Investigation, 2019)", "target": "T1, STK38 (NDR) (Homo sapiens, UniProt Q15208)", "T1 construct": "purchased Thermo Fisher Scientific (Life Technologies) SelectScreen", "T1 sequence (Q15208 whole entry)": "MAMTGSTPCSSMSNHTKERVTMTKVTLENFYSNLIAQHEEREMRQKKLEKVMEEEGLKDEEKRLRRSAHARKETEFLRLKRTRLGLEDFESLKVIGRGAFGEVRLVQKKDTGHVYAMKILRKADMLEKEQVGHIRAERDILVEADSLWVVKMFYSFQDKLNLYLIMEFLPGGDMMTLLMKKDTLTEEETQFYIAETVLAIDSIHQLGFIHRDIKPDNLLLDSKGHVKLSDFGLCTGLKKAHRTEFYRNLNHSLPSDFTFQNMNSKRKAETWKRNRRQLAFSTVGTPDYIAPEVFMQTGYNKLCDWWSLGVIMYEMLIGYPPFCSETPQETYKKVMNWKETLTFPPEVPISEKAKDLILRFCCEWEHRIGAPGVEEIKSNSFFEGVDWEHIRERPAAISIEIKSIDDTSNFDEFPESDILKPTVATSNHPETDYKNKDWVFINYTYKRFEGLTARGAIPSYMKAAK", "test": "SelectScreen LanthaScreen", "assay_type": "binding", "conditions": "read-out: % displacement", "method_in_brief": "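SelectScreen broad panel; activity (Z'LYTE, Adapta) plus binding formats. ATP: Km app for CSF1R Z'LYTE; 10 for CAMK1 Adapta. Readout = % per kinase.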"}
{"compound": "CN(C(=O)CN1CCOCC1)c1ccc2sc3c(-c4cccc5c(=O)cc(N6CC7CCC(C6)O7)oc45)cccc3c2c1", "note": "[NU5455]", "values": [{"measurement": "inhibition at 1 µM", "result": -5.9, "unit": "%"}]}
